For 14 compounds, IC50 results are on record in ChEMBL document CHEMBL1129210, “Epidermal growth factor receptor tyrosine kinase: Structure-activity relationships and antitumour activity of novel quinazolines” (Bioorg Med Chem Lett, 1997).

This test has as its target Epidermal growth factor receptor (Homo sapiens, UniProt P00533). Nature of the test: Tested for inhibition of Epidermal growth factor receptor from A431 vulval squamous carcinoma cells.

Chain of Epidermal growth factor receptor (P00533 whole entry): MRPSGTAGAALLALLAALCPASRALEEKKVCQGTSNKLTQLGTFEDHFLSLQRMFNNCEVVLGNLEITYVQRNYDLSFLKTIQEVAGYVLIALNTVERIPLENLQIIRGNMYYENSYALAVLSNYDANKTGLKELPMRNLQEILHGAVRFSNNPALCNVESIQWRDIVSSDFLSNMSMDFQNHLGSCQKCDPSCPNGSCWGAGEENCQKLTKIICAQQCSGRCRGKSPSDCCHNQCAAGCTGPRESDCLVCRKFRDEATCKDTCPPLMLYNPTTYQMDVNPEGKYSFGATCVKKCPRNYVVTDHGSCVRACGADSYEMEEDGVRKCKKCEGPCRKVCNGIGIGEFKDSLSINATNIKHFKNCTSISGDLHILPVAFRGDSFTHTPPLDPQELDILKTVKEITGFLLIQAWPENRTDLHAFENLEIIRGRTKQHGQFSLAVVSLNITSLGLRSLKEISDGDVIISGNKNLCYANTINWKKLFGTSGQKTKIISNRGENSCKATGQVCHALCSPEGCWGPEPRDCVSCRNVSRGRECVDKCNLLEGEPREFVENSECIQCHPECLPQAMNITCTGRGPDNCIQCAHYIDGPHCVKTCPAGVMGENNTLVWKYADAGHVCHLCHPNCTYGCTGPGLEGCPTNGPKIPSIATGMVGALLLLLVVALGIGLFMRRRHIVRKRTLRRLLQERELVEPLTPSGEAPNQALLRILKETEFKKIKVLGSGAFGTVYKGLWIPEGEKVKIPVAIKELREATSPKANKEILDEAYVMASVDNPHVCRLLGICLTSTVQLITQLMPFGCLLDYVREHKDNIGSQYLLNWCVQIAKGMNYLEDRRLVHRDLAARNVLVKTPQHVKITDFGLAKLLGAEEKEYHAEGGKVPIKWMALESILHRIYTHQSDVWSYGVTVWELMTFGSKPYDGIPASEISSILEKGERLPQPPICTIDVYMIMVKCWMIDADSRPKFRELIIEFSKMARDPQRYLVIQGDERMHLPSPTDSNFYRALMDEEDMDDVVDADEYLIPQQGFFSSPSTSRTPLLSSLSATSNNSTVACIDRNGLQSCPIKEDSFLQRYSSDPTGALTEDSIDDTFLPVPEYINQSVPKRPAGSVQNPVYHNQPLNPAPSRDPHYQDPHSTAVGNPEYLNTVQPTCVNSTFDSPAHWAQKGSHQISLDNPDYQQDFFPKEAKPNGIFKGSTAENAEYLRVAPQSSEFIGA

`COc1cc2ncnc(N3CCc4ccccc43)c2cc1OC`: inhibition was half-maximal at 820 nM (IC50).

Regarding `COc1cc2ncnc(Nc3cncc4ccccc34)c2cc1OC`, inhibition was half-maximal at 6.4 nM (IC50).

With `COc1cc2ncnc(Nc3nccc4ccccc34)c2cc1OC`, half-maximal inhibition (IC50) required 200 nM.

Take `COc1cc2ncnc(Nc3cnc4ccccc4n3)c2cc1OC`: half-maximal inhibition (IC50) required 780 nM.

Regarding `COc1cc2ncnc(NC3CC3c3ccccc3)c2cc1OC` (centres undefined), the midpoint of inhibition, the IC50, lay at 10 nM.

As to `COc1cc2ncnc(NC3CC3c3ccccc3)c2cc1OCCN1CCOCC1` (centres undefined), the half-inhibitory concentration (IC50) – broadly, the midpoint of a concentration-inhibition curve – stood at 300 nM.

For `COc1cc2ncnc(NNc3ccc(F)c(Cl)c3)c2cc1OC`, the IC50 came out at 430 nM. The IC50 values of the last two compounds are within 1.5-fold of each other.

Compound `COc1cc2ncnc(NC3CC3c3ccccc3)c2cc1OC(C)=O` (centres undefined) displayed an IC50 of 84 nM.

As for `COc1cc2ncnc(Nc3nnc4ccccc4n3)c2cc1OC`, half-maximal inhibition (IC50) required 820 nM.

Compound `COc1cc2ncnc(NC3CC3c3ccccc3)c2cc1OCCCN(C)C` (centres undefined) came in with an IC50 of 27 nM.

On to `COc1cc2ncnc(/N=N/c3ccc(F)c(Cl)c3)c2cc1OC`, for which the IC50 amounted to 730 nM. This IC50 lies about 27-fold higher than the previous one.

For the compound `COc1cc2ncnc(NCc3cccc(C)c3)c2cc1OC`, the IC50 is 170 nM.

Compound `COc1cc2ncnc(NC3CC3c3ccccc3)c2cc1O` (centres undefined) had an IC50 of 390 nM.

With `COc1cc2ncnc(NC3CCc4ccccc43)c2cc1OC` (centres undefined), the IC50 worked out at 910 nM.
